Assay results: patent publication US11117947B2, “Double-acylated GLP-1 derivatives” (Novo Nordisk A/S, priority 2011, dated 2021)
Numbered stars: 1 amine (or outer) side, 2 acyl side, 3 side chain; on linkers, the order of the positions; unused ones are H or OH. Side chains are listed from the residue outwards. Peptide text beside a SMILES is read from it. * marks the point of attachment. Decanoyl(10-(4-HOOC-PhO)) = O=C(O)c1ccc(OCCCCCCCCCC(=O)*)cc1; γGlu = O=C(O)[C@H](CCC(=O)[*:2])N[*:1]; AEEA = NCCOCCOCC(=O)O

Experiment: Estimate of oral bioavailability: gut injection in rat (caprate), exposure in plasma
Format: in vivo
Settings: injection in jejunum, 1000 uM in 55 mg/ml sodium caprate, plasma concentration (pM) at 30 min divided by dosing solution concentration (μM), mean n=4
Method: The GLP-1 derivatives were tested in a concentration of 1000 uM in a solution of 55 mg/ml sodium caprate.
Male Sprague Dawley rats with a body weight upon arrival of approximately 240 g were obtained from Taconic (Denmark) and assigned to the different treatments by simple randomisation, 4 rats per group.
The GLP-1 derivatives were administered in the jejunum either in the proximal part (10 cm distal for the duodenum) or in the mid-intestine (50 cm proximal for the cecum). A PE50-catheter, 10 cm long was inserted into the jejunum, forwarded at least 1.5 cm into the jejunum, and secured before dosing by ligature around the gut and the catheter with 3/0 suture distal to tip to prevent leak or catheter displacement. Catheter was placed without syringe and needle and 2 ml saline was administered into abdomen before closing the incision with wound clips.
100 μl of the respective GLP-1 derivative was injected into the jejunal lumen through the catheter with a 1 ml syringe. Subsequently, 200 μl of air was pushed into the jejunal lumen with another syringe to “flush” the catheter. This syringe was leaved connected to the catheter to prevent flow back into the catheter.
Blood samples (200 ul) were collected at desired intervals (usually at times 0, 10, 30, 60, 120 and 240 min) into EDTA tubes from the tail vein and centrifuged 5 minutes, 10000G, at 4° C. within 20 minutes. […] 12, p. 240-247. The donor beads were coated with streptavidin, while acceptor beads were conjugated with a monoclonal antibody recognising a mid-/C-terminal epitope of the peptide. Another monoclonal antibody, specific for the N-terminus, was biotinylated. The three reactants were combined with the analyte and formed a two-sited immuno-complex. Illumination of the complex released singlet oxygen atoms from the donor beads, which were channeled into the acceptor beads and triggered chemiluminescence which was measured in an Envision plate reader. The amount of light was proportional to the concentration of the compound.
After the blood sampling the rats were sacrificed under anaesthesia and the abdomen was opened to verify correct catheter placement.
The mean (n=4) plasma concentrations (pmol/l) were determined as a function of time.

Compound	Dose-corrected exposure at 30 min
CC[C@H](C)[C@H](NC(=O)[C@H](Cc1ccccc1)NC(=O)[C@H](CCCCNC(=O)COCCOCCNC(=O)COCCOCCNC(=O)CC[C@H](NC(=O)CCCCCCCCCOc1ccc(C(=O)O)cc1)C(=O)O)NC(=O)[C@H](CCCNC(=N)N)NC(=O)[C@H](C)NC(=O)[C@H](C)NC(=O)[C@H](CCC(N)=O)NC(=O)CNC(=O)[C@H](CCC(=O)O)NC(=O)[C@H](CC(C)C)NC(=O)[C@H](Cc1ccc(O)cc1)NC(=O)[C@H](CO)NC(=O)[C@H](CO)NC(=O)[C@@H](NC(=O)[C@H](CC(=O)O)NC(=O)[C@H](CO)NC(=O)[C@@H](NC(=O)[C@H](Cc1ccccc1)NC(=O)[C@@H](NC(=O)CNC(=O)[C@H](CCC(=O)O)NC(=O)[C@H](C)NC(=O)[C@@H](N)Cc1c[nH]cn1)[C@@H](C)O)[C@@H](C)O)C(C)C)C(=O)N[C@@H](CCC(=O)O)C(=O)N[C@@H](Cc1c[nH]c2ccccc12)C(=O)N[C@@H](CC(C)C)C(=O)N[C@H](C(=O)N[C@@H](CCCNC(=N)N)C(=O)NCC(=O)N[C@@H](CCCCNC(=O)COCCOCCNC(=O)COCCOCCNC(=O)CC[C@H](NC(=O)CCCCCCCCCOc1ccc(C(=O)O)cc1)C(=O)O)C(=O)NCC(=O)N[C@@H](CCC(=O)O)C(=O)O)C(C)C [Example 6, N^ε27-[2-[2-[2-[[2-[2-[2-[[(4S)-4-carboxy-4-[10-(4-carboxyphenoxy)decanoylamino]butanoyl]amino]ethoxy]ethoxy]acetyl]amino]ethoxy]ethoxy]acetyl], N^ε36-[2-[2-[2-[[2-[2-[2-[[(4S)-4-carboxy-4-[10-(4-carboxyphenoxy)decanoylamino]butanoyl]amino]ethoxy]ethoxy]acetyl]amino]ethoxy]ethoxy]acetyl]-[Arg^26,Lys^27,Glu^30,Arg^34,Lys^36]-GLP-1-(7-37)-peptidyl-Glu] (H-HAEGTFTSDVSSYLEGQAARK([AEEA-AEEA-γGlu-Decanoyl(10-(4-HOOC-PhO))])FIEWLVRGK([AEEA-AEEA-γGlu-Decanoyl(10-(4-HOOC-PhO))])GE-OH; N-terminus and C-terminus assumed)	93
CC[C@H](C)[C@H](NC(=O)[C@H](Cc1ccccc1)NC(=O)[C@H](CCCCNC(=O)COCCOCCNC(=O)COCCOCCNC(=O)CC[C@H](NC(=O)CCCCCCCCCOc1ccc(C(=O)O)cc1)C(=O)O)NC(=O)[C@H](CCCNC(=N)N)NC(=O)[C@@H](NC(=O)[C@H](C)NC(=O)[C@H](CCC(N)=O)NC(=O)[C@H](CCC(=O)O)NC(=O)[C@H](CCC(=O)O)NC(=O)[C@H](CC(C)C)NC(=O)[C@H](Cc1ccc(O)cc1)NC(=O)[C@H](CO)NC(=O)[C@H](CO)NC(=O)[C@@H](NC(=O)[C@H](CC(=O)O)NC(=O)[C@H](CO)NC(=O)[C@@H](NC(=O)[C@H](Cc1ccccc1)NC(=O)[C@@H](NC(=O)CNC(=O)[C@H](CCC(=O)O)NC(=O)[C@H](C)NC(=O)[C@@H](N)Cc1c[nH]cn1)[C@@H](C)O)[C@@H](C)O)C(C)C)C(C)C)C(=O)N[C@@H](C)C(=O)N[C@@H](Cc1c[nH]c2ccccc12)C(=O)N[C@@H](CC(C)C)C(=O)N[C@H](C(=O)N[C@@H](CCCNC(=N)N)C(=O)NCC(=O)N[C@@H](CCCNC(=N)N)C(=O)N[C@@H](CCCCNC(=O)COCCOCCNC(=O)COCCOCCNC(=O)CC[C@H](NC(=O)CCCCCCCCCOc1ccc(C(=O)O)cc1)C(=O)O)C(=O)O)C(C)C [Example 4, N^ε27-[2-[2-[2-[[2-[2-[2-[[(4S)-4-carboxy-4-[10-(4-carboxyphenoxy)decanoylamino]butanoyl]amino]ethoxy]ethoxy]acetyl]amino]ethoxy]ethoxy]acetyl], N^ε37-[2-[2-[2-[[2-[2-[2-[[(4S)-4-carboxy-4-[10-(4-carboxyphenoxy)decanoylamino]butanoyl]amino]ethoxy]ethoxy]acetyl]amino]ethoxy]ethoxy]acetyl]-[Glu^22,Val^25,Arg^26,Lys^27,Arg^34,Lys^37]-GLP-1-(7-37)-peptide] (H-HAEGTFTSDVSSYLEEQAVRK([AEEA-AEEA-γGlu-Decanoyl(10-(4-HOOC-PhO))])FIAWLVRGRK([AEEA-AEEA-γGlu-Decanoyl(10-(4-HOOC-PhO))])-OH; N-terminus and C-terminus assumed)	39
CC[C@H](C)[C@H](NC(=O)[C@H](Cc1ccccc1)NC(=O)[C@H](CCCCNC(=O)COCCOCCNC(=O)COCCOCCNC(=O)CC[C@H](NC(=O)CCCCCCCCCOc1ccc(C(=O)O)cc1)C(=O)O)NC(=O)[C@H](CCCNC(=N)N)NC(=O)[C@@H](NC(=O)[C@H](C)NC(=O)[C@H](CCC(N)=O)NC(=O)CNC(=O)[C@H](CCC(=O)O)NC(=O)[C@H](CC(C)C)NC(=O)[C@H](Cc1ccc(O)cc1)NC(=O)[C@H](CO)NC(=O)[C@H](CO)NC(=O)[C@@H](NC(=O)[C@H](CC(=O)O)NC(=O)[C@H](CO)NC(=O)[C@@H](NC(=O)[C@H](Cc1ccccc1)NC(=O)[C@@H](NC(=O)CNC(=O)[C@H](CCC(=O)O)NC(=O)[C@H](C)NC(=O)[C@@H](N)Cc1c[nH]cn1)[C@@H](C)O)[C@@H](C)O)C(C)C)C(C)C)C(=O)N[C@@H](CCC(=O)O)C(=O)N[C@@H](Cc1c[nH]c2ccccc12)C(=O)N[C@@H](CC(C)C)C(=O)N[C@H](C(=O)N[C@@H](CCC(N)=O)C(=O)NCC(=O)N[C@@H](CCCCNC(=O)COCCOCCNC(=O)COCCOCCNC(=O)CC[C@H](NC(=O)CCCCCCCCCOc1ccc(C(=O)O)cc1)C(=O)O)C(=O)NCC(=O)N[C@@H](CCC(=O)O)C(=O)O)C(C)C [Example 13, N^ε27-[2-[2-[2-[[2-[2-[2-[[(4S)-4-carboxy-4-[10-(4-carboxyphenoxy)decanoylamino]butanoyl]amino]ethoxy]ethoxy]acetyl]amino]ethoxy]ethoxy]acetyl], N^ε36-[2-[2-[2-[[2-[2-[2-[[(4S)-4-carboxy-4-[10-(4-carboxyphenoxy)decanoylamino]butanoyl]amino]ethoxy]ethoxy]acetyl]amino]ethoxy]ethoxy]acetyl]-[Val^25,Arg^26,Lys^27,Glu^30,Gln^34,Lys^36]-GLP-1-(7-37)-peptidyl-Glu] (H-HAEGTFTSDVSSYLEGQAVRK([AEEA-AEEA-γGlu-Decanoyl(10-(4-HOOC-PhO))])FIEWLVQGK([AEEA-AEEA-γGlu-Decanoyl(10-(4-HOOC-PhO))])GE-OH; N-terminus and C-terminus assumed)	126
